# Measurements reported in US20230288403A1, “METHOD FOR INDUCING EXTRACELLULAR TRAP (ET) FORMATION” (Tridek-One Therapeutics, priority 2022, published 2023).
# Entries after “also recorded” stand apart in the source; their conditions may differ.
# B1: motavizumab: humanized monoclonal antibody directed against the respiratory syncytial virus (RSV), produced as a human IgG4 (antibody, chains of the INN, looked up, V domains shown)
# VH: QVTLRESGPALVKPTQTLTLTCTFSGFSLSTAGMSVGWIRQPPGKALEWLADIWWDDKKHYNPSLKDRLTISKDTSKNQVVLKVTNMDPADTATYYCARDMIFNFYFDVWGQGTTVTVSS
# VL: DIQMTQSPSTLSASVGDRVTITCSASSRVGYMHWYQQKPGKAPKLLIYDTSKLASGVPSRFSGSGSGTEFTLTISSLQPDDFATYYCFQGSGYPFTFGGGTKVEIK
# modifications: IgG4
# notes: humanized monoclonal antibody directed against the respiratory syncytial virus (RSV), produced as a human IgG4
# Assays:
# Assay type in all cases: cell-based
# [1] = tested on: human peripheral blood neutrophils; assay: NET detection in fixed neutrophils by fluorescence microscopy (Sytox Green, nuclear morphology); details: 4 hours of culture, plate-bound human polyvalent Ig (coating solution 100 μg/mL) or PMA (25 nM) in culture medium
# Description: Human polyvalent immunoglobulins (or human polyvalent Ig) also referred to as intravenous immunoglobulin or IVIg (Privigen, CSL Behring LLC) or human serum albumin or HSA (Sigma Aldrich—reference: H5667), used as negative control, diluted in coating solution (DPBS Gibco—reference: 14190) were allowed to adsorb for 2 hours at room temperature on high-binding, sterile 96-well plates suitable for fluorescence microscopy (Greiner Bio-One, Frickenhausen, Germany). Unless indicated otherwise, deposits of human polyvalent Ig were obtained with a coating solution (DPBS no calcium, no magnesium (ThermoFisher—reference: 14190) consisting of KCl 2.67 mM, KH2PO4 1.47 mM, NaCl 137.9 mM, Na2HPO4-7H2O 8.06 mM) comprising human polyvalent Ig at a concentration of 100 μg/mL. Similarly, unless indicated otherwise, deposits of HSA were obtained with a coating solution comprising HSA at a concentration of 100 μg/mL. Phorbol-12-myristate-13-acetate or PMA (Sigma Aldrich—reference: P8139) was used as positive control. PMA was added to the culture medium at a final concentration of nM. In some experiments (see FIG. 5A), human polyvalent Ig were added in the culture medium at a final concentration ranging from 3 to 300 μg/mL. […]
# Images were acquired by fluorescence microscopy in the green channel. […]
# [2] = tested on: human peripheral blood neutrophils; assay: NET formation by live cell fluorescent microscopy (Sytox Green) with computer-assisted image analysis
# Description: Human polyvalent immunoglobulins (or human polyvalent Ig) also referred to as intravenous immunoglobulin or IVIg (Privigen, CSL Behring LLC) or human serum albumin or HSA (Sigma Aldrich—reference: H5667), used as negative control, diluted in coating solution (DPBS Gibco—reference: 14190) were allowed to adsorb for 2 hours at room temperature on high-binding, sterile 96-well plates suitable for fluorescence microscopy (Greiner Bio-One, Frickenhausen, Germany). Unless indicated otherwise, deposits of human polyvalent Ig were obtained with a coating solution (DPBS no calcium, no magnesium (ThermoFisher—reference: 14190) consisting of KCl 2.67 mM, KH2PO4 1.47 mM, NaCl 137.9 mM, Na2HPO4-7H2O 8.06 mM) comprising human polyvalent Ig at a concentration of 100 μg/mL. Similarly, unless indicated otherwise, deposits of HSA were obtained with a coating solution comprising HSA at a concentration of 100 μg/mL. Phorbol-12-myristate-13-acetate or PMA (Sigma Aldrich—reference: P8139) was used as positive control. PMA was added to the culture medium at a final concentration of nM. In some experiments (see FIG. 5A), human polyvalent Ig were added in the culture medium at a final concentration ranging from 3 to 300 μg/mL.
# (§1) Neutrophils were isolated from the peripheral blood of healthy human donors by negative magnetic bead selection using a commercially available kit (STEMCELL Technologies—reference: 19666). Isolated neutrophils were then distributed in 96-well plates (Greiner Bio-One, Frickenhausen, Germany), in particular in 96-well plates coated with human polyvalent Ig or HSA as described above, at a concentration of 7.5×10^4 cells per well, corresponding to 10^6 cells/mL of culture medium. Neutrophils were then cultured in HBSS with calcium and magnesium (Gibco—reference: 24020-091) under standard conditions (i.e., humidified incubator 37° C. and 5% CO2). […]
# (§2) High-binding, sterile 96-well plates (Greiner Bio-One, Frickenhausen, Germany) were coated with human polyvalent Ig as described in Example 1, using a coating solution comprising human polyvalent Ig at a concentration ranging from 3 to 300 μg/mL, as indicated. If no indication is given, deposits of human polyvalent Ig were obtained with a coating solution comprising human polyvalent Ig at a concentration of 100 μg/mL.
# (§3) Where indicated, the SYK inhibitor BAY-61-3606, obtained from Selleckchem (reference: S7006), was added to the culture medium at a final concentration ranging from 0.05 to 5 (0.05, 0.1, 0.5, 1, 5 as indicated). Where indicated, the calcineurin inhibitor FK506 (also known as tacrolimus), obtained from ASTELLAS PHARMA (PROGRAF™ 5 mg/ml), was added to the culture medium at a final concentration ranging from 0.3 to 100 nM (0.3, 1, 3, 10, 30, 100 nM, as indicated). Where indicated, the humanized monoclonal antibody motavizumab directed against the respiratory syncytial virus (RSV), produced as a human IgG4 (by Evitria, Zurich, Switzerland), was added to the culture medium at a final concentration ranging from 1 to 100 μg/mL (1, 3, 10, 30, 100 μg/mL, as indicated). Human IgG4 can engage FcRI (CD64) and enhance the activation of human neutrophils triggered by immobilized immunoglobulins, which is mediated by FcRIIa and FcRIIIb, by the engagement of an additional signaling pathway.
# Human peripheral blood neutrophils were isolated and cultured as described in Example 1. In particular, freshly isolated peripheral blood neutrophils were distributed in coated plate as described in Example 1 (7.5×10^4 cells per well, corresponding to 10^6 cells/mL of culture medium) and cultured for the indicated time.
# The fluorescent, cell-impermeant, nucleic acid dye Sytox Green was added to the culture medium at a concentration of 1 μM to detect NET formation. ROS (reactive oxygen species) formation was identified by the use of a fluorescent oxidative-sensitive probe (CM-H2DCFDA, ThermoFisher Scientific—reference: C6827). […]
# [3] = tested on: human peripheral blood neutrophils; assay: ROS formation with the oxidative-sensitive fluorescent probe CM-H2DCFDA, live cell imaging; details: inhibitor 0 to 5 μM; plates coated with 100 μg/mL human polyvalent Ig; 6 hours
# Description: as §2
# as §3, with “Human IgG4 can engage FcRI (CD64) and enhance the activation of human neutrophils triggered by immobilized immunoglobulins, which is mediated by FcRIIa and FcRIIIb, by the engagement of an additional signaling pathway.” left out
# Time-lapse images were acquired by live cell fluorescent microscopy. Quantitative time-course measure of ROS and NET formation was performed by computer-assisted image analysis (data are expressed as GCU/well).
# [4] = tested on: human peripheral blood eosinophils; assay: EET formation by eosinophils, live cell fluorescent microscopy (Sytox Green); details: 5 μM inhibitor; 100 μg/mL of human polyvalent Ig
# Description: High-binding, sterile 96-well plates (Greiner Bio-One, Frickenhausen, Germany) were coated with human polyvalent Ig as described in Example 1, using a coating solution comprising human polyvalent Ig at a concentration ranging from 10 to 300 μg/mL, as indicated.
# Where indicated, the SYK inhibitor BAY-61-3606, obtained from Selleckchem (reference: S7006), was added to the culture medium at a final concentration of 5 μM.
# as §1, with “Eosinophils” for “Neutrophils”, “19656).” for “19666).”, “eosinophils” for “neutrophils”, “bovine serum albumin (negative control)” for “HSA”, “1.5×10^4” for “7.5×10^4”, “2×10^5” for “10^6”
# Time-lapse images were acquired by live cell fluorescent microscopy. Quantitative time-course measure of EET formation was performed by computer-assisted image analysis (data are expressed as GCU/well).
# [5] = tested on: human peripheral whole blood; assay: ET formation in diluted whole blood, live cell fluorescent microscopy (Sytox Green); details: 5 μM inhibitor; 20 μg/mL of human polyvalent Ig; whole blood 1/10 dilution
# Description: High-binding, sterile 96-well plates (Greiner Bio-One, Frickenhausen, Germany) were coated with human polyvalent Ig as described in Example 1, using a coating solution comprising human polyvalent Ig at a concentration ranging from 10 to 80 μg/mL, as indicated.
# Where indicated, the SYK inhibitor BAY-61-3606, obtained from Selleckchem (reference: S7006), was added to the whole blood samples diluted in culture medium at a final concentration of 5 μM.
# Fresh human peripheral whole blood was collected from healthy donors and diluted ten times (1/10 dilution) in culture medium containing cell-impermeant, nucleic acid dye Sytox Green at a concentration of 1 μM to detect ET formation. Diluted whole blood was then distributed in 96-well plates (Greiner Bio-One, Frickenhausen, Germany), in particular in 96-well plates coated with human polyvalent Ig or bovine serum albumin (negative control) as described above.
# Time-lapse images were acquired by live cell fluorescent microscopy. Quantitative time-course measure of ET formation was performed by computer-assisted image analysis (data are expressed as GCU/well).
# [6] = 24-hour live imaging, plate-bound human polyvalent Ig (coating solution 100 μg/mL) or PMA 25 nM
molecule,measurement,setting,value
"CCCCCCCCCCCCCC(=O)O[C@@H]1[C@@H](C)[C@@]2(O)[C@@H](C=C(CO)C[C@]3(O)C(=O)C(C)=C[C@@H]23)[C@@H]2C(C)(C)[C@]12OC(C)=O [PMA, phorbol 12-myristate 13-acetate]",NET formation (nuclear morphology of neutrophils),[1],most neutrophils displayed signs of NETosis
same,NET formation rate change,[2]; [6],causes NET formation from all neutrophils at once
same,NET formation time course,[2]; [6],"NET induction was visible on almost all neutrophils from 3-hour culture; also recorded: drives the simultaneous formation of NETs from a great number of neutrophils, within as soon as 3 hours of culture"
COc1ccc(-c2cc3nccn3c(Nc3ncccc3C(N)=O)n2)cc1OC [BAY-61-3606],NET formation induced by immobilized human polyvalent Ig,"[2]; inhibitor 0 to 5 μM, plates coated with 100 μg/mL human polyvalent Ig, 6 hours",decreased
same,NET formation elicited by motavizumab plus immobilized human polyvalent Ig,"[2]; inhibitor at a concentration of 5, 100 μg/mL motavizumab and immobilized human polyvalent Ig (100 μg/mL coating)",completely abolishes the NET formation
same,ROS production induced by immobilized human polyvalent Ig,[3],decreased
same,EET formation induced by immobilized human polyvalent Ig,[4],no EET formation
same,ET formation induced by immobilized human polyvalent Ig,[5],no ET formation
B1,NET formation in presence of immobilized human polyvalent Ig,"[2]; antibody 0 to 100 μg/mL in culture medium, plates coated with 100 μg/mL human polyvalent Ig, compared to coated IVIG without motavizumab",drives a proportional increase in the formation of NETs
same,NET formation in absence of immobilized immunoglobulins,"[2]; antibody 0 to 100 μg/mL in culture medium, uncoated 96-well plates",is not able to drive the formation of NETs
